For 13 compounds, IC50 and activity results are on record in ChEMBL document CHEMBL3813663, “Aryl morpholino triazenes inhibit cytochrome P450 1A1 and 1B1” (Bioorg Med Chem Lett, 2016).

Each structure is given as a SMILES string.

The target in one series is Cytochrome P450 1A1 (Homo sapiens, UniProt P04798).
Cytochrome P450 1A1, sequence (P04798 whole entry): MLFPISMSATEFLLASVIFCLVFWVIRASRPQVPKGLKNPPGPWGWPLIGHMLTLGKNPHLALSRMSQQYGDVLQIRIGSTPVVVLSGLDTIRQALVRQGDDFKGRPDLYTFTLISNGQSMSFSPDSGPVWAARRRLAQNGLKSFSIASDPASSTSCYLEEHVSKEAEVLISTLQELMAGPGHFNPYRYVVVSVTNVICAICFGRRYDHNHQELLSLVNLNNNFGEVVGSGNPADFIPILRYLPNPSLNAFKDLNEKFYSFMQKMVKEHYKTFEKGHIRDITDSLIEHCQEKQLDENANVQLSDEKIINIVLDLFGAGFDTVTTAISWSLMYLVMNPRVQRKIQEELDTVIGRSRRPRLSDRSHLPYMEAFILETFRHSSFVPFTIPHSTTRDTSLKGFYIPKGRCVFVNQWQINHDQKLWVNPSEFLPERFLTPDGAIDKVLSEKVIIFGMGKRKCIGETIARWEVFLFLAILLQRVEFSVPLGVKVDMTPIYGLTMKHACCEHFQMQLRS
Assay: not given
Settings: not given
Regarding `O=C(O)c1ccc(/N=N/N2CCOCC2)cc1`, 167 µM corresponded to half-maximal inhibition (IC50).
Same read-out and setting: next, `COc1cc(/N=N/N2CCOCC2)cc(OC)c1OC`: 10 µM; `O=[N+]([O-])c1ccc(/N=N/N2CCOCC2)cc1`: 115 µM.
The same measure, in the same setting: next, `Brc1ccc(/N=N/N2CCOCC2)cc1`: 63 µM; `c1ccc(/N=N/N2CCOCC2)cc1`: 120 µM; `Oc1ccc(/C=C/c2cc(O)cc(O)c2)cc1` [RESVERATROL]: 34 µM.
In the case of `CC(=O)c1ccc(/N=N/N2CCOCC2)cc1`, the IC50 (in general, the midpoint of a concentration-inhibition curve) was determined as 82 µM.

The target of the next series is T1, Cytochrome P450 1B1 (Homo sapiens, UniProt Q16678).
T1 sequence (Q16678 whole entry): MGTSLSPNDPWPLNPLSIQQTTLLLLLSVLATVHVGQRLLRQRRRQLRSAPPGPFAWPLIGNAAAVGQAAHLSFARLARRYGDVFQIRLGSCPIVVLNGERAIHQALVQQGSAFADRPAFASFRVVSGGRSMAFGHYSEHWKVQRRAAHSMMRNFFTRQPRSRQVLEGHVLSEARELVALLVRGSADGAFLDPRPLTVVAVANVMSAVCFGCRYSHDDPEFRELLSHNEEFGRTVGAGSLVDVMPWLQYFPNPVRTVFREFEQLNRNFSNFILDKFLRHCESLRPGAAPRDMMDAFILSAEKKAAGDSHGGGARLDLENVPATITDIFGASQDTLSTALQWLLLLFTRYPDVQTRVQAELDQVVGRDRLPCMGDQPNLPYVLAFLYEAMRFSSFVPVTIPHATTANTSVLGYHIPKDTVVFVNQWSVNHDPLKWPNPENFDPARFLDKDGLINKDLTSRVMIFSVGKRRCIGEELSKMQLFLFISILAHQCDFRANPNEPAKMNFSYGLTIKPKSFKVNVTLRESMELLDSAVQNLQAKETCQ
Assay: not given
Settings: not given
Regarding `O=C(O)c1ccc(/N=N/N2CCOCC2)cc1`, the IC50 came to 400 µM.
Still for that read-out and setting: then `COc1cc(/N=N/N2CCOCC2)cc(OC)c1OC`, with 18 µM; and `Nc1ccc(C(=O)O)cc1` [AMINOBENZOIC ACID], with more than 120 µM.
Same read-out and setting: then `O=[N+]([O-])c1ccc(/N=N/N2CCOCC2)cc1`, with 2 µM.
The same measure, in the same setting: next, `Brc1ccc(/N=N/N2CCOCC2)cc1`: 7 µM; `c1ccc(/N=N/N2CCOCC2)cc1`: 163 µM; `Oc1ccc(/C=C/c2cc(O)cc(O)c2)cc1` [RESVERATROL]: 55 µM.

Another series addresses T2, CYP1B1 (Homo sapiens, UniProt Q16678).
T2 sequence (Q16678 whole entry): T1 sequence (Q16678 whole entry)
Nature of the series: in vitro.
Settings: not given
Consider `O=[N+]([O-])c1ccc(/N=N/N2CCOCC2)cc1`, for which the activity at 2 min, 100 µM is 16%.
As to `C1COCCN1` [MORPHOLINE], the activity at 2 min, 100 µM is 100%.
The same measure, in the same setting: then `Oc1ccc(/C=C/c2cc(O)cc(O)c2)cc1` [RESVERATROL], with 56%.

Still in this series, the particulars now being: probe ethoxyresorufin (O-deethylation).
As to `O=C(O)c1ccc(/N=N/N2CCOCC2)cc1`, the activity at 2 min, 100 µM came to 81%.
Consider `Nc1ccc(Br)cc1` [4-BROMOANILINE], for which the activity at 2 min, 100 µM stood at 94%.
As for `COc1cc(N)cc(OC)c1OC`, the activity at 2 min, 100 µM amounted to 100%.
The compound `Nc1ccc([N+](=O)[O-])cc1` [4-NITROANILINE] had an activity at 2 min, 100 µM of 92%.
With `COc1cc(/N=N/N2CCOCC2)cc(OC)c1OC`, the activity at 2 min, 100 µM was determined as 14%.
Same read-out and setting: next, `Nc1ccc(C(=O)O)cc1` [AMINOBENZOIC ACID]: 75%; `Brc1ccc(/N=N/N2CCOCC2)cc1`: 59%.
As for `c1ccc(/N=N/N2CCOCC2)cc1`, the activity at 2 min, 100 µM came out at 74%.
On the same count and under the same terms, next, `Nc1ccccc1` [ANILINE]: 100%.
On to `CC(=O)c1ccc(/N=N/N2CCOCC2)cc1`, for which the activity at 2 min, 100 µM was found to be 100%.

In another series the target is CYP1A1 (Homo sapiens, UniProt P04798). Nature of the series: in vitro.
CYP1A1, sequence (P04798 whole entry): as the sequence (P04798 whole entry) above
Settings: not given
In turn, `C1COCCN1` [MORPHOLINE] came in with an activity at 2 min, 100 µM of 91%.
The same measure, in the same setting: next, `Brc1ccc(/N=N/N2CCOCC2)cc1`: 53%.

Staying with this series, now noted: probe ethoxyresorufin (O-deethylation).
For the compound `O=C(O)c1ccc(/N=N/N2CCOCC2)cc1`, the activity at 2 min, 100 µM came out at 67%.
`Nc1ccc(Br)cc1` [4-BROMOANILINE] yielded an activity at 2 min, 100 µM of 100%.
On the same count and under the same terms, then `COc1cc(N)cc(OC)c1OC`, with 95%; and `Nc1ccc([N+](=O)[O-])cc1` [4-NITROANILINE], with 100%.
Turning to `COc1cc(/N=N/N2CCOCC2)cc(OC)c1OC`, the activity at 2 min, 100 µM amounted to 8%.
In turn, `Nc1ccc(C(=O)O)cc1` [AMINOBENZOIC ACID] showed an activity at 2 min, 100 µM of 100%.
`O=[N+]([O-])c1ccc(/N=N/N2CCOCC2)cc1` displayed an activity at 2 min, 100 µM of 79%.
As for `c1ccc(/N=N/N2CCOCC2)cc1`, the activity at 2 min, 100 µM amounted to 56%.
Same read-out and setting: then `Nc1ccccc1` [ANILINE], with 100%; and `Oc1ccc(/C=C/c2cc(O)cc(O)c2)cc1` [RESVERATROL], with 11%; and `CC(=O)c1ccc(/N=N/N2CCOCC2)cc1`, with 70%.
